The values below come from patent US20190151341A1, “APPLICATION OF TENVERMECTIN FOR PREVENTING AND TREATING PARASITE INFECTION” (ZHEJIANG HISUN PHARMACEUTICAL CO., LTD., priority 2016, published 2019).

Data set [1] relates to allogynogenetic crucian carp. Description: Toxicity to allogynogenetic crucian carp, semi-static method, 96 hours. The class given is in vivo. An excerpt: Test fish and water: allogynogenetic crucian carp was purchased from Taowang Farm in Jiaojiang District, Taizhou City, with a body length of (9.60±0.52) cm and a body weight of (28.22±3.44) g. The healthy and vigorous fish with the same size were selected and temporarily raised in an indoor aquarium. They were domesticated for 7 days indoors before the test. The natural mortality rate was zero.
99.4% Tenvermectin A (the mass content of tenvermectin B was 0.02%) (Zhejiang Hisun Pharmaceutical Co., Ltd.);
Tenvermectin (the mass ratio of tenvermectin A/tenvermectin B was 95/5) (Zhejiang Hisun Pharmaceutical Co., Ltd.);
Tenvermectin (the mass ratio of tenvermectin A/tenvermectin B was 90/10) (Zhejiang Hisun Pharmaceutical Co., Ltd.);
Tenvermectin (the mass ratio of tenvermectin A/tenvermectin B was 85/15) (Zhejiang Hisun Pharmaceutical Co., Ltd.);
99.1% Tenvermectin B (the mass content of tenvermectin A was 0.51%) (Zhejiang Hisun Pharmaceutical Co., Ltd.);
92% Avermectin (Zhejiang Qianjiang Biochemical Co., Ltd.);
96% Ivermectin (Zhejiang Hisun Pharmaceutical Co., Ltd.);
90% Methylamino avermectin benzoate (Emamectin benzoate) (Zhejiang Shenghua Biok Biotechnology Co., Ltd.).
Method: semi-static method. […]

Data set [2] deals with zebrafish. The experiment in a line: Toxicity to zebrafish, semi-static method, 96 hours. The settings on record: 8 h. As to the method:
Test agents: avermectin, milbemycin, ivermectin, tenvermectin A and tenvermectin B were all from Zhejiang Hisun Pharmaceutical Co., Ltd. The samples were formulated into 50 mg/ml mother liquors with DMF.
Test fish and water: zebrafish (Brachydanio rerio) was purchased from Zhejiang Academy of Agricultural Sciences, with the same size, average body length of 2-3 cm and average body weight of 0.3 g. The zebrafish was domesticated for 7 days indoors before the test. […] Feeding was stopped 1 day before the test and the fish were not fed during the test. The test water was tap water with residual chlorine removed by exposure to the sun for more than 24 hours, and the pH thereof was 6.8.
Test methods: semi-static method. Three level differences were provided for each sample: 0.5 ppm, 1.0 ppm and 1.5 ppm, and three parallel groups were provided for each level difference, 10 zebrafish were raised for each group, and blank controls (one group without agents and one group with only solvent) were provided. The corresponding volume of mother liquor was taken according to the concentration as required for each sample, and the volume of each sample was adjusted to 150 μl with DMF, and then each sample was added to the test group (containing 1.6 L of water). The room temperature was controlled at 22±2° C. for 96 hours, and the water was changed every 24 hours and the samples were re-added. The fish mortality rate was recorded for the first 8 hours and at 24, 48, 72 and 96 hours, and the dead fish were removed in time.

Data set [3] deals with swine nematode (nematodes in the digestive tract). The experiment in a line: Repelling swine nematode in naturally infected pigs (fecal egg count, McMaster's method). The note with it: 1% injection 0.2 mg/kg bw s.c. The class given is in vivo. An excerpt:
(§1) Test agents: 1% ivermectin injection, 1% tenvermectin A injection, and 1% tenvermectin B injection as obtained in Example 1.
(§2) Test animals and grouping: pigs cultured in the same farm were selected, and 40 pigs naturally infected with nematodes in the digestive tract were selected for testing through fecal examination. The average weight of the test pigs was 30-50 kg. Forty pigs were randomly divided into 4 groups, 10 for each group. The first group was the ivermectin control group, the second group was the tenvermectin A group, and the third group was the tenvermectin B group. All the medicated groups were injected subcutaneously in the neck according to 0.2 mg/kg·bw. The forth group was a blank group and was not administered.
(§3) 1) The feces of the pigs in each group were collected and examined one by one a day before administration, and worm eggs were counted by the McMaster's method. The number of eggs per gram of feces (EPG) was counted and the condition of Haematopinus on the body surface was observed.
(§4) 2) 1, 2, 3 and 4 weeks after administration, the feces of the pigs in each group were examined by the McMaster's method, and the EPG was counted and the changes of Haematopinus on the body surface were observed.
3) The negative conversion rates and egg reduction rates of the test pigs were calculated by a conventional method to assess the efficacy of repelling swine nematode.

In data set [4] the test system is digestive tract nematodes. Description: Repelling nematode in digestive track of sheep (fecal egg count). The format is in vivo.
Text: as §1
Test animals and grouping: sheep grazed under the same condition were selected, and 80 sheep of 0.8-2.0 years old naturally infected with digestive tract nematodes were selected through fecal examination. The average weight of the test sheep was 30 kg. The 80 sheep were randomly divided into 4 groups, 20 heads for each group. The first group was the ivermectin control group, the second group was the tenvermectin A group, and the third group was the tenvermectin B group. All the medicated groups were injected subcutaneously in the neck according to 0.2 mg/kg·bw. The fourth group was a blank group and was not medicated.
1) The feces of the sheep in each group were collected and examined one by one a day before administration, and the worm eggs were counted by the McMaster's method, and the number of eggs per gram of feces (EPG) was counted.
2) On the 9th day after administration, the sheep of each group were subjected to a fecal examination by McMaster's method, and EPG was counted.
3) The egg negative conversion rates and egg reduction rates were calculated according to a conventional method to assess the efficacy.

For data set [5], the system named is swine Haematopinus. Description: Killing effect on swine Haematopinus on the body surface. The class given is in vivo. The settings on record: pigs, 1% injection 0.2 mg/kg bw s.c., until the 7th day and in the following 3 weeks.
Text: as §1, §2, §3, §4
4) The killing effects of swine Haematopinus of the agents were assessed according to the survival of swine Haematopinus on the 7th day after administration.

The subject of data set [6] is Sarcoptes mites. The experiment in a line: Treatment of Sarcoptes mites of sheep (skin scrapings, live mites). The format is in vivo. The note with it: 1% injection 0.2 mg/kg bw s.c.; for Negative conversion number: sheep (10 per group); for Negative conversion rate (%): sheep. From the text:
Test agents: 1% ivermectin injection, 1% tenvermectin A injection and 1% tenvermectin B injection as obtained in Example 1.
Test animals and grouping: sheep grazed under the same conditions were selected. Upon parasitological examination, 40 sheep which had been infected with sheep Sarcoptes mites were selected. The 40 sheep were randomly divided into 4 groups, 10 heads for each group. The first group was the ivermectin control group, the second group was the tenvermectin A group, and the third group was the tenvermectin B group. All the medicated groups were injected subcutaneously in the neck according to 0.2 mg/kg·bw. The fourth group was a blank group and was not medicated.
Test methods: the changes of clinical symptoms were observed. The skin of sheep was scratched using a surgical blade with glycerin at the junction of the affected part and the healthy skin of the diseased sheep until the skin slightly bled. The skin scraps were taken then were placed in a dish and brought back to the laboratory. Then the skin scraps were placed on a slide, a drop of aqueous solution of 50% glycerol was added, and a cover slip was covered, and then the skin scraps were checked under a low magnification microscope. It was confirmed to be positive if live Sarcoptes mites were observed. Samples were taken before administration and at 1, 2, 3 and 4 weeks after administration to be examined. The samples were examined under a microscope, based on whether live mites were observed, the samples can be determined to be positive as long as one live mite was observed. Changes of clinical symptoms were observed as references.

The mark [7] stands for this setting: allogynogenetic crucian carp, 0.5 ppm, 8 h.
The mark [8] stands for this setting: allogynogenetic crucian carp, 1.0 ppm, 8 h.
Where [9] appears, read: allogynogenetic crucian carp, 2.0 ppm, 8 h.
Where [10] appears, read: sheep, 1% injection 0.2 mg/kg bw s.c., 9th day after administration.

`CC[C@H](C)[C@H]1O[C@]2(C=C[C@@H]1C)C[C@@H]1C[C@@H](C/C=C(\C)[C@@H](O[C@H]3C[C@H](OC)[C@@H](O[C@H]4C[C@H](OC)[C@@H](O)[C@H](C)O4)[C@H](C)O3)[C@@H](C)/C=C/C=C3\CO[C@@H]4[C@H](O)C(C)=C[C@@H](C(=O)O1)[C@]34O)O2` [Avermectin, reference compound]: the “Survival condition (survival rates/%)” value in data set [1] (setting [7]), in data set [1] (setting [8]), in data set [1] (setting [9]), in data set [2] (0.5 ppm), in data set [2] (1.0 ppm) and in data set [2] (1.5 ppm) was 0% throughout.
As to `CC[C@H](C)C1O[C@]2(C=C[C@@H]1C)C[C@@H]1C[C@@H](C/C=C(\C)[C@@H](O[C@H]3C[C@H](OC)[C@@H](O[C@H]4C[C@H](OC)[C@H](NC)[C@H](C)O4)[C@H](C)O3)[C@@H](C)/C=C/C=C3\CO[C@@H]4[C@H](O)C(C)=C[C@@H](C(=O)O1)[C@]34O)O2.O=C(O)c1ccccc1` (some centres unmarked) [Methylamino avermectin benzoate, reference compound], the “Survival condition (survival rates/%)” value in data set [1] (setting [7]), in data set [1] (setting [8]), in data set [1] (setting [9]), in data set [2] (0.5 ppm), in data set [2] (1.0 ppm) and in data set [2] (1.5 ppm) was 0% in each case.
For the compound Ivermectin [reference compound], the “Egg reduction rate (%)” value in data set [3] (1st week after administration) is 76.2%; in data set [3] (2nd week after administration), 91.2%; in data set [3] (3rd week after administration) it was 100%; in data set [3] (4th week after administration), 66.2%; in data set [4] (setting [10]) it was 100%. In addition, the “Negative conversion rate (%)” value in data set [3] (1st week after administration) is given as 70%; in data set [3] (2nd week after administration) it was 90%; in data set [3] (3rd week after administration), 80%; in data set [3] (4th week after administration) it was 60%; in data set [4] (setting [10]), 100%; in data set [6] (1st week), 70%. The “Negative conversion rate (%)” value in data set [6] (2nd week) worked out at 90%; in data set [6] (3rd week), 100%; in data set [6] (4th week), 100%. Besides, in data set [4] (sheep (20 per group), 1% injection 0.2 mg/kg bw s.c., 9th day after administration), the “Number of sheep negatively conversed” value is 20. Further, the EPG after administration in data set [4] (sheep, eggs per gram of feces, 0.2 mg/kg bw s.c., 9th day after administration) was 0. Moreover, the EPG before administration in data set [4] (sheep, eggs per gram of feces, baseline a day before administration) was 9100. In addition, the “active Haematopinus observed on the body surface” value in data set [5] was “no active Haematopinus was found”. Besides, the “Survival condition (survival rates/%)” value in data set [1] (setting [7]), in data set [1] (setting [8]), in data set [1] (setting [9]), in data set [2] (0.5 ppm), in data set [2] (1.0 ppm) and in data set [2] (1.5 ppm) was 0% each time. Also, the Negative conversion number came to 7 in data set [6] (1st week), 9 in data set [6] (2nd week), 10 in data set [6] (3rd week) and 10 in data set [6] (4th week).
As for Milbemycin [reference compound], the “Survival condition (survival rates/%)” value in data set [1] (in vivo), in data set [2] (0.5 ppm), in data set [2] (1.0 ppm) and in data set [2] (1.5 ppm) was 0% throughout.
